Tests used:
[1] = system: postsynaptic A1Rs, CA1 pyramidal cells; assay: Whole-cell patch-clamp, membrane potential of CA1 pyramidal cells; type: cell-based, rat; conditions: 1 µM
Protocol: (§1) Rats were kept on a 12-hour light-dark cycle with slices made 90 min after entering the light cycle. […] The brain was removed, cut down the midline and the two sides of the brain stuck down to a metal base plate using cyanoacrylate glue. […] Slices were stored at 34 °C for 1–6 h in aCSF (1 mM MgCl2, 2 mM CaCl2) before use.
A slice was transferred to the recording chamber and perfused at 3 ml min^−1 with aCSF at 32 ± 0.5 °C. Slices were visualised using IR-DIC optics with an Olympus BX151W microscope (Scientifica) and a CCD camera (Hitachi). […] Voltage and current recordings were obtained using an Axon Multiclamp 700B amplifier (Molecular Devices, USA) and digitised at 20 KHz. Data acquisition and analysis was performed using pClamp 10 (Molecular Devices, USA). For voltage-clamp experiments, CA1 pyramidal cells were held at −60 mV. Peptides to interfere with G protein signalling were introduced via the patch pipette into the recorded cell.

[2] = system: native presynaptic A1Rs, rat hippocampal slices; assay: Extracellular fEPSP recording, inhibition of excitatory synaptic transmission in hippocampal slices; type: cell-based
Protocol: as §1
A slice was transferred to the recording chamber, submerged in aCSF and perfused at 4–6 ml min^−1 (32 ± 0.5 °C). The slice was placed on a grid allowing perfusion above and below the tissue and all tubing was gastight (to prevent loss of oxygen). […] Field excitatory postsynaptic potentials (fEPSPs) were evoked with either an isolated pulse stimulator model 2100 (AM Systems, WA) or ISO-Flex (AMPI, Jerusalem, Israel). For fEPSPs a 10–20 min baseline was recorded at a stimulus intensity that gave 40-50% of the maximal response. […] For fEPSP slope, a 1 ms linear region after the fibre volley was measured. Extracellular recordings were made independently on two electrophysiology rigs.
Statistical significance was tested as indicated in the text using paired or unpaired two-tailed t-tests or one-way or two-way ANOVAs with repeated measures (RM) as appropriate. Bonferroni corrections for multiple comparisons were performed. All in vitro cell signalling assay data was analysed using Prism 8.4 (Graphpad software, San Diego, CA), with all concentration-response curves being fitted using a 3 parameter logistic equation to calculate response range and IC50. All cAMP data was normalised to a forskolin concentration-response curve ran in parallel to each assay.

[3] = Half-life determination in PBS; type: physicochemical; conditions: PBS, pH 7.4
Protocol: […] Samples were analysed by HPLC-MS/MS and corresponding peak areas were recorded for each analyte. The ratio of precursor compound remaining after each time-point relative to the amount present at time 0, expressed as a percentage, is reported as chemical stability.

in vitro = conditions: human, plasma
Protocol: (§2) At the end of incubation at each of the time points (0, 0.5, 1, 1.5, 2 h), acetonitrile was added to the incubation mixture followed by centrifugation. Samples were analysed by HPLC-MS/MS and peak areas were recorded for each analyte. The area of precursor compound remaining after each of the time points relative to the amount remaining at time 0, expressed as a percentage, was calculated. Subsequently, the t1/2 is estimated from the slope of the initial linear range of the logarithmic curve of compound remaining (%) versus time, assuming first-order kinetics.

[4] = Half-life determination in human plasma; conditions: UoBern01 at 1.00E-06 M
Protocol: as §2

[5] = incubation 0 minutes, UoBern01 at 1.00E-06 M
[6] = incubation 60 minutes, UoBern01 at 1.00E-06 M
[7] = incubation 120 minutes, UoBern01 at 1.00E-06 M

CNC(=O)[C@H]1O[C@@H](n2cnc3c(NCc4cccc(I)c4)nc(Cl)nc32)[C@H](O)[C@@H]1O [2-Cl-IB-MECA]
effect on membrane potential [1]: had no effect on membrane potential

OC[C@H]1O[C@@H](n2cnc3c(N[C@@H]4CCC[C@H]4OCc4ccccc4)ncnc32)[C@H](O)[C@@H]1O [BnOCPA, (2 R,3 R,4 S,5 R)−2-(6-{[(1 R,2 R)−2-benzyloxycyclopentyl]amino}−9H-purin-9-yl)−5-(hydroxymethyl)oxolane-3,4-diol]
time constant of inhibition of synaptic transmission (single exponential) ([2]; 300 nM): 2.2 min

CCNC(=O)[C@H]1O[C@@H](n2cnc3c(N)ncnc32)[C@H](O)[C@@H]1O [NECA, 5′-(N-Ethylcarboxamido) adenosine]
IC50 ([2]; fEPSP, rat hippocampal slices, read-out: IC50 inhibition of synaptic transmission): 8.3 ± 3 nM

CC(C)[N+](C)(CCOC(=O)C1c2ccccc2Oc2ccccc21)C(C)C [Propantheline]
Mean / Half-Life ([3]; UoBern01 at 1.00E-06 M): >120 min | 1st / % Compound Remaining [3, 5]: 100% | 2nd / % Compound Remaining [3, 5]: 100% | Mean / % Compound Remaining [3, 5]: 100% | 1st / % Compound Remaining ([3]; incubation 30 minutes): 95.1% | 2nd / % Compound Remaining ([3]; incubation 30 minutes): 97.9% | Mean / % Compound Remaining ([3]; incubation 30 minutes): 96.5% | 1st / % Compound Remaining [3, 6]: {129.3} % | 2nd / % Compound Remaining [3, 6]: 96.1% | Mean / % Compound Remaining [3, 6]: 96.1% | 1st / % Compound Remaining ([3]; incubation 90 minutes): 86.5% | 2nd / % Compound Remaining ([3]; incubation 90 minutes): 89.2% | Mean / % Compound Remaining ([3]; incubation 90 minutes): 87.8% | 1st / % Compound Remaining [3, 7]: {72.3} % | 2nd / % Compound Remaining [3, 7]: 76.6% | Mean / % Compound Remaining [3, 7]: 76.6% | half-life ([3]; read-out: 1st / Half-Life): > 120 min | half-life (in vitro): 46.9 min | 2nd / Half-Life [4]: 50.4 min | Mean / Half-Life [4]: 49 min | 1st / % Compound Remaining ([4]; incubation 0 minutes): 100% | 2nd / % Compound Remaining ([4]; incubation 0 minutes): 100% | Mean / % Compound Remaining ([4]; incubation 0 minutes): 100% | 1st / % Compound Remaining ([4]; incubation 30 minutes): 69.6% | 2nd / % Compound Remaining ([4]; incubation 30 minutes): 53.9% | Mean / % Compound Remaining ([4]; incubation 30 minutes): 61.7% | 1st / % Compound Remaining ([4]; incubation 60 minutes): 44.8% | 2nd / % Compound Remaining ([4]; incubation 60 minutes): 36.9% | Mean / % Compound Remaining ([4]; incubation 60 minutes): 40.9% | 1st / % Compound Remaining ([4]; incubation 90 minutes): 29.3% | 2nd / % Compound Remaining ([4]; incubation 90 minutes): 22.6% | Mean / % Compound Remaining ([4]; incubation 90 minutes): 26% | 1st / % Compound Remaining ([4]; incubation 120 minutes): 16.8% | 2nd / % Compound Remaining ([4]; incubation 120 minutes): 19.6% | Mean / % Compound Remaining ([4]; incubation 120 minutes): 18.2%

From article PMC9293909 (Nature Communications, 2022)
